The values below come from patent publication US20240189294A1, “METHOD FOR REGULATING SEBACEOUS GLAND” (BUDDHIST TZU CHI MEDICAL FOUNDATION, priority 2021, published 2024).

Entries after “also recorded” stand apart in the source; their conditions may differ.

Assay [1] deals with hair follicle pigmentation. The experiment in a line: Fontana-Masson staining of hair follicle pigmentation after topical CK1 inhibitor. Type of assay: in vivo, C57BL/6J mice. To be noted: topical 0.04 mg every other day, total 0.12 mg per 1 cm^2, mice 8 weeks old (telogen); FIG. 5E. The method, then: (§1) Mice at 8 weeks old were shaved to remove hair on back skin and cleaned with 75% ethanol. Topical CKIs were applied on the back skin 3 times in one week, and the tissue was harvested on day 7, day 14 and some on day 28 after application of CKIs. The tissue was analyzed by the methods described below.
(§2) Skin samples were harvested at indicated timings for tissue analysis. Paraffin-embedded specimens were cut into 5-μm sections. After deparaffinization (with tissue slides being soaked in xylene three times, each time for 5 min) and rehydration (with slides being incubated in the following graded series of ethanol: 100%, 100%, 95%, 90% and 70%, 5 min each), the slides were rinsed with distilled water for 5 min.
Fontana-Masson staining and H&E staining were performed by using the kit from ScyTek Laboratories, Inc. according to the manufacturer's instructions.
Briefly, for Fontana-Masson staining, a freshly mixed ammoniacal silver solution was placed in a 58° C. to 60° C. water bath and allowed to equilibrate. The slides were incubated in a warmed ammoniacal silver solution for 30 to 60 min or until the tissue sections became yellow/brown in color, and were then rinsed with distilled water for 3 to 5 seconds (s). The slides were incubated in a gold chloride solution (0.2%) for 30 s and were then rinsed with distilled water for 3 to 5 s. […]

Assay [2] deals with hair follicles. As to the kind of experiment: Topical application of CK1 inhibitors on shaved back skin of wild-type mice: hair growth phenotype and H&E staining (hair cycle phase). It counts as in vivo, C57BL/6J mice. To be noted: topical 0.04 mg every other day, total 0.12 mg per 1 cm^2, mice 8 weeks old; for hair growth on the back skin (phenotype): three times, N=3, FIG. 5B; for hair cycle phase, H&E staining of back skin: FIG. 5C. Here is the method: K14-Cr-ERT2-CK1α^fl/fl mice, Mc1r^549del mice and Mc1r^549del mice with CK1α ablation in keratinocytes (CK1α^−/−Mc1r^549del) were collaboratively generated in National Laboratory Animal Center (NLAC) in Tainan, Taiwan, and wild type C57BL/6J mice were also purchased from NLAC. Experiments and animal caring were performed in the Laboratory Animal Center, Tzu Chi University, Hualien, Taiwan, with the approval of Animal Care Committee in accordance with legal and ethical standards. Both male and female mice were used. The hair cycle in wild C57BL/6J mice is related to the age; weeks 4 to 6 are an anagen phase, weeks 6 to 7 are a catagen phase, and weeks 7 to 12 are a telogen phase.
A51 is a gift from Dr. Yinon Ben-Nerian's lab (which was published in Cell, Volume 175, Issue 1, 20 Sep. 2018, pages 171-185). For topical application onto mouse skin, 1 mg of CKI was dissolved in 6 μL dimethyl sulfoxide (DMSO) and mixed with 54 μL of vehicle which contained 60% of white wax and 40% of paraffin oil. The final working concentration is 0.1 mg/cm^2.
D4476 was purchased from Sigma Aldrich (#D1944). For topical application onto mouse skin, 4 mg of CKI was dissolved in 1 mL DMSO as the stock. 10 μL stock was mixed with 40 μL of vehicle which contained 60% of white wax and 40% of paraffin oil. The final working concentration is 0.04 mg/cm^2.
IC261 was purchased from Sigma Aldrich (#40090). For topical application onto mouse skin, 4 mg of CKI was dissolved in 1 mL DMSO as the stock. 10 μL stock was mixed with 40 μL of vehicle which contained 60% of white wax and 40% of paraffin oil. The final working concentration is 0.04 mg/cm^2.
as §1, §2
For histopathology by H&E staining, skin tissues were fixed overnight in 10% neutral buffered formalin at 4° C. and then transferred to 70% ethanol before being processed and embedded in paraffin. Paraffin sections were then stained with H&E.

The test system of assay [3] is β-catenin. As to the kind of experiment: Immunohistochemical staining of β-catenin in back skin after topical CK1 inhibitor. It counts as in vivo, C57BL/6J mice. To be noted: topical 0.04 mg every other day, total 0.12 mg per 1 cm^2, mice 8 weeks old; FIG. 5D. The method, then:
as §1, §2
Paraffin sections were incubated in a humidity chamber for 15 min at 60° C. Sections were deparaffinized in two changes of xylene for 5 min each and hydrated in two changes of 100% ethanol for 5 min each, then in 95% and 80% ethanol for 5 min each, and finally rinsed in distilled water. Antigen retrieval was enhanced by microwaving the slides in a citrate buffer (DAKO; pH 6.0) for 20 min. Endogenous peroxidase activity was quenched with 3% hydrogen peroxide in methanol. After blocking, sections were incubated overnight at 4° C. with β-catenin antibody (1/100; BD Bioscience). Secondary antibodies used were horseradish peroxidase (HRP)-polymer anti-mouse antibodies (Nichirei). […]

Assay [4] has as its system LC3B. The experiment in a line: Western blot of LC3B (autophagy marker) in SZ95 cells. It counts as cell-based, human. To be noted: FIG. 8D. Here is the method: (§3) For experiments involving tissues, the tissues were homogenized and lysed in 1× tissue protein extraction reagent (Thermo Fisher) containing protease inhibitor (Millipore) and kept on ice; for experiments involving cells, cell pellet was collected and lysed in 1×radioimmunoprecipitation assay (RIPA) lysis buffer containing protease inhibitor (Millipore) and kept on ice. The total protein concentration was determined using Protein Assay Dye Reagent Concentrate (Bio-Rad) following manufacturer's instruction with a microplate reader. Sample was diluted in SDS-PAGE Sample Buffer (Bio-Rad) and heated at 95° C. for 5 minutes. The protein sample was then resolved on SDS-PAGE gels (TGX FastCast acrylamide solutions, Bio-Rad) and transferred onto poly(vinylidene fluoride) (PVDF) membranes (Millipore). 5% BSA was used, and then the membranes were incubated with primary antibodies overnight at 4° C. The membranes were then washed by Tris-buffered saline with Tween 20 (TBST) and incubated with secondary antibodies for 1 hour at room temperature. The signal was detected using iBright FL1000 Imaging System from Thermo Fisher Scientific.
(§4) The antibodies used in immunohistochemistry (IHC) and Western blotting (WB) in this disclosure were listed in Table 1 below, where manufacturers, catalogue number and the dilution ratio used were provided. […]
(In general: In western blotting, separated proteins are transferred to a membrane and probed.)

The subject of assay [5] is c-Myc. The experiment in a line: Western blot of c-Myc in SZ95 cells. It counts as cell-based, human. The following applies: IC261 at different concentrations vs DMSO, FIG. 8C. Here is the method:
as §3, §4

Assay [6] deals with PPARγ. As to the kind of experiment: Western blot of PPARγ in SZ95 cells. Type of assay: cell-based, human. To be noted: IC261 at different concentrations vs DMSO, FIG. 8C. Here is the method: as §3, §4
The subject of assay [7] is SZ95 cells (human sebocyte cell line). The experiment in a line: WST-1 assay in SZ95 cells. The following applies: 1.5×10^4 cells/well, treated for 24 hr, FIG. 8B. It counts as cell-based. The method, then: SZ95 cells (human sebocyte cell line) were maintained in Sebomed basal Medium (Sigma) supplemented with 10% FBS and 5 ng/mL epidermal growth factor under standard cell culture conditions of 37° C. and 5% CO2.
WST-1 assay. Seeding cells with density 1.5×10^4 cells/well in 96-well plate, incubate overnight. Remove medium and add 100 μL fresh medium contain various amount of IC261 (1, 50, 100, 200, 500, 1000 nM) in each well, incubate for 24 hr. Add 10 μL/well WST-1, incubate for 4 hr. Measure the absorbance of OD 450 nm and OD 655 nm by ELISA reader.
A general note: Tetrazolium dyes change colour on reduction, which living cells bring about.

Take `NC(=O)c1ccc(-c2nc(-c3ccc4c(c3)OCCO4)c(-c3ccccn3)[nH]2)cc1` [D4476]: the “hair follicle pigmentation, Fontana-Masson staining” value in assay [1] is “induce hair follicle growth and pigmented hair formation; also recorded: Heavily pigmented hair follicles and shafts”. Also, in assay [2], the “hair growth on the back skin (phenotype)” value is given as “significantly induced hair growth” and the “hair cycle phase, H&E staining of back skin” value is “induces an anagen phase of the hair cycle”. In addition, the “expression of β-catenin, immunohistochemical staining” value in assay [3] is recorded as “increased the expression of β-catenin in the matrix of hair follicle”.
Usually IC50 stands for the concentration needed to halve the response being measured. For `COc1cc(OC)c(C=C2C(O)=Nc3ccccc32)c(OC)c1` [IC261], in assay [4], the “LC3B expression (marker for autophagy)” value was “increase with a dose dependent manner”. Further, in assay [1], the “hair follicle pigmentation, Fontana-Masson staining” value is “induce hair follicle growth and pigmented hair formation; also recorded: Heavily pigmented hair follicles and shafts”. Moreover, in assay [2], the “hair growth on the back skin (phenotype)” value is reported as “significantly induced hair growth” and the “hair cycle phase, H&E staining of back skin” value is listed as “induces an anagen phase of the hair cycle”. The “c-Myc expression (biomarker for undifferentiated sebocytes)” value in assay [5] is recorded as “increased”. In addition, the “PPARγ expression (biomarker for adipogenesis)” value in assay [6] is “decreased”. Besides, the “expression of β-catenin, immunohistochemical staining” value in assay [3] is listed as “increased the expression of β-catenin in the matrix of hair follicle”. In assay [7], the IC50 is approximately 476 nM.
